Measured values taken from patent publication US5843889A, “Glycopeptide antibiotic derivatives” (Eli Lilly and Company, priority 1997, dated 1998).
Converted amounts (≈) assume the structure as drawn.

Assays:
Assay type in all cases: cell-based
Lactobacillus confusus = experiment: MIC, agar dilution on brain-heart infusion agar
Leuconostoc citreum = experiment: MIC, agar dilution on brain-heart infusion agar
[1] = tested on: Leuconostoc pseudomesenteroides; experiment: MIC, agar dilution on brain-heart infusion agar
[2] = tested on: Entercoccus gallinarum 245; experiment: MIC, standard broth micro-dilution assay
Experimental: (§1) The formula I compounds have in vitro and in vivo activity against Gram-positive pathogenic bacteria. The MIC's were determined using a standard broth micro-dilution assay.

Entercoccus faecalis 276 = experiment: MIC, standard broth micro-dilution assay
Experimental: as §1

[3] = tested on: Entercoccus faecalis 2041; experiment: MIC, standard broth micro-dilution assay
Experimental: as §1

Pedicoccus acidilacti = experiment: MIC, agar dilution on brain-heart infusion agar; conditions: Pedioccccus acidilacti (mean of 10)
Leuconostoc lactis = experiment: MIC, agar dilution on brain-heart infusion agar; conditions: Leuconostoc lactis (mean of 2)
[4] = tested on: Leuconostoc mesenteroides; experiment: MIC, agar dilution on brain-heart infusion agar; conditions: Leuconostoc mesenteroides (mean of 4)
Pediococcus pentosaceus = experiment: MIC, agar dilution on brain-heart infusion agar; conditions: Pediococcus pentosaceus (mean of 2)
[5] = tested on: Haemophilus influenzae RD; experiment: MIC, standard broth micro-dilution assay
Experimental: (§2) The MIC's were determined using a standard broth micro-dilution assay.

Escherichia coli EC14 = experiment: MIC, standard broth micro-dilution assay
Experimental: as §2

[6] = tested on: Staphylococcus haemolyticus 415; experiment: MIC, standard broth micro-dilution assay
Experimental: as §2

[7] = tested on: Entercoccus faecium 180-1; experiment: MIC, standard broth micro-dilution assay
Experimental: as §2

[8] = tested on: Staphylococcus haemolyticus 105; experiment: MIC, standard broth micro-dilution assay
Experimental: as §2

[9] = tested on: Staphylococcus aureus 447; experiment: MIC, standard broth micro-dilution assay
Experimental: as §2

[10] = tested on: Staphylococcus aureus 491; experiment: MIC, standard broth micro-dilution assay
Experimental: as §2

[11] = tested on: Streptococcus pneumoniae P1; experiment: MIC, standard broth micro-dilution assay
Experimental: as §2

[12] = tested on: Staphylococcus aureus X778; experiment: MIC, standard broth micro-dilution assay
Experimental: as §2

[13] = tested on: Staphylococcus aureus 489; experiment: MIC, standard broth micro-dilution assay
Experimental: as §2

[14] = tested on: Staphylococcus aureus X400; experiment: MIC, standard broth micro-dilution assay
Experimental: as §2

[15] = tested on: Staphylococcus epidermidis 270; experiment: MIC, standard broth micro-dilution assay
Experimental: as §2

[16] = tested on: Staphylococcus aureus 446; experiment: MIC, standard broth micro-dilution assay
Experimental: as §2

[17] = tested on: Staphylococcus aureus SA1199; experiment: MIC, standard broth micro-dilution assay
Experimental: as §2

Entercoccus faecium 180 = experiment: MIC, standard broth micro-dilution assay
Experimental: as §2

[18] = tested on: Staphylococcus aureus SA1199A; experiment: MIC, standard broth micro-dilution assay
Experimental: as §2

[19] = tested on: Staphylococcus aureus SA1199B
Experimental: as §2

[20] = tested on: Staphylococcus aureus S13E
Experimental: as §2

| SMILES | MIC (Lactobacillus confusus) [µg/mL] | MIC (Leuconostoc citreum) [µg/mL] | MIC [1] [µg/mL] | MIC [2] [µg/mL] | MIC (Entercoccus faecalis 276) [µg/mL] | MIC [3] [µg/mL] | MIC (Pedicoccus acidilacti) [µg/mL] | MIC (Leuconostoc lactis) [µg/mL] | MIC [4] [µg/mL] | MIC (Pediococcus pentosaceus) [µg/mL] | also measured |
| --- | --- | --- | --- | --- | --- | --- | --- | --- | --- | --- | --- |
| CNC(CC(C)C)C(=O)NC1C(=O)NC(CC(N)=O)C(=O)NC2C(=O)NC3C(=O)NC(C(=O)NC(C(=O)O)c4cc(O)cc(O)c4-c4cc3ccc4O)C(OC3CC(C)(N)C(O)C(C)O3)c3ccc(c(Cl)c3)Oc3cc2cc(c3OC2OC(CO)C(O)C(O)C2OC2CC(C)(NCc3ccc(C=Cc4ccccc4)cc3)C(O)C(C)O2)Oc2ccc(cc2Cl)C1O (stereo not shown) [Compound 29, 4-stilbenzyl] | 8 (≈ 4.48 µM) | 32 (≈ 17.9 µM) | 16 (≈ 8.97 µM) | 0.25 (≈ 0.14 µM) | 0.25 (≈ 0.14 µM) | 0.25 (≈ 0.14 µM) | 4.0 (≈ 2.24 µM) | 5.7 (≈ 3.19 µM) | 6.7 (≈ 3.75 µM) | 8.0 (≈ 4.48 µM) |  |
| CNC(CC(C)C)C(=O)NC1C(=O)NC(CC(N)=O)C(=O)NC2C(=O)NC3C(=O)NC(C(=O)NC(C(=O)O)c4cc(O)cc(O)c4-c4cc3ccc4O)C(OC3CC(C)(N)C(O)C(C)O3)c3ccc(c(Cl)c3)Oc3cc2cc(c3OC2OC(CO)C(O)C(O)C2OC2CC(C)(NCc3ccc4c(c3)Cc3ccccc3-4)C(O)C(C)O2)Oc2ccc(cc2Cl)C1O (stereo not shown) [Compound 32, 2-fluorenylmethyl] | 16 (≈ 9.04 µM) | 64 (≈ 36.1 µM) |  |  |  |  |  | 16 (≈ 9.04 µM) | 16 (≈ 9.04 µM) | 16 (≈ 9.04 µM) |  |
| CNC(CC(C)C)C(=O)NC1C(=O)NC(CC(N)=O)C(=O)NC2C(=O)NC3C(=O)NC(C(=O)NC(C(=O)O)c4cc(O)cc(O)c4-c4cc3ccc4O)C(OC3CC(C)(N)C(O)C(C)O3)c3ccc(c(Cl)c3)Oc3cc2cc(c3OC2OC(CO)C(O)C(O)C2OC2CC(C)(NCc3ccc(OC(F)(F)F)cc3)C(O)C(C)O2)Oc2ccc(cc2Cl)C1O (stereo not shown) [Compound 6, 4-trifluoromethoxybenzyl] | 16 (≈ 9.06 µM) |  | 16 (≈ 9.06 µM) | ≤ 0.06 |  | ≤ 0.06 | 4.3 (≈ 2.43 µM) | 8.0 (≈ 4.53 µM) | 9.5 (≈ 5.38 µM) | 8.0 (≈ 4.53 µM) |  |
| CNC(CC(C)C)C(=O)NC1C(=O)NC(CC(N)=O)C(=O)NC2C(=O)NC3C(=O)NC(C(=O)NC(C(=O)O)c4cc(O)cc(O)c4-c4cc3ccc4O)C(OC3CC(C)(N)C(O)C(C)O3)c3ccc(c(Cl)c3)Oc3cc2cc(c3OC2OC(CO)C(O)C(O)C2OC2CC(C)(NCc3ccc(OC4CCCCC4)cc3)C(O)C(C)O2)Oc2ccc(cc2Cl)C1O (stereo not shown) [Compound 124, 4-cyclohexyloxybenzyl] | 16 (≈ 8.99 µM) | 64 (≈ 35.9 µM) | 64 (≈ 35.9 µM) | 1 (≈ 0.562 µM) | ≤ 0.06 | ≤ 0.06 | 20 (≈ 11.2 µM) | 16 (≈ 8.99 µM) | 16 (≈ 8.99 µM) | 16 (≈ 8.99 µM) |  |
| CNC(CC(C)C)C(=O)NC1C(=O)NC(CC(N)=O)C(=O)NC2C(=O)NC3C(=O)NC(C(=O)NC(C(=O)O)c4cc(O)cc(O)c4-c4cc3ccc4O)C(OC3CC(C)(N)C(O)C(C)O3)c3ccc(c(Cl)c3)Oc3cc2cc(c3OC2OC(CO)C(O)C(O)C2OC2CC(C)(NCc3ccc(OCc4ccccc4)cc3)C(O)C(C)O2)Oc2ccc(cc2Cl)C1O (stereo not shown) [Compound 5, 4-benzyloxybenzyl] | 16 (≈ 8.95 µM) | 64 (≈ 35.8 µM) | 16 (≈ 8.95 µM) | ≤ 0.06 | ≤ 0.06 | ≤ 0.06 | 2.8 (≈ 1.57 µM) | 8.0 (≈ 4.47 µM) | 8 (≈ 4.47 µM) | 8.0 (≈ 4.47 µM) |  |
| CNC(CC(C)C)C(=O)NC1C(=O)NC(CC(N)=O)C(=O)NC2C(=O)NC3C(=O)NC(C(=O)NC(C(=O)O)c4cc(O)cc(O)c4-c4cc3ccc4O)C(OC3CC(C)(N)C(O)C(C)O3)c3ccc(c(Cl)c3)Oc3cc2cc(c3OC2OC(CO)C(O)C(O)C2OC2CC(C)(NCc3ccc(-c4ccccc4)cc3)C(O)C(C)O2)Oc2ccc(cc2Cl)C1O (stereo not shown) [Compound 2, p-phenylbenzyl.cndot.A82846B] | 16 (≈ 9.1 µM) |  | 32 (≈ 18.2 µM) | ≤ 0.06 | 0.5 (≈ 0.284 µM) |  | 5.9 (≈ 3.35 µM) | 4.0 (≈ 2.27 µM) | 16 (≈ 9.1 µM) | 11 (≈ 6.25 µM) |  |
| CNC(CC(C)C)C(=O)NC1C(=O)NC(CC(N)=O)C(=O)NC2C(=O)NC3C(=O)NC(C(=O)NC(C(=O)O)c4cc(O)cc(O)c4-c4cc3ccc4O)C(OC3CC(C)(N)C(O)C(C)O3)c3ccc(c(Cl)c3)Oc3cc2cc(c3OC2OC(CO)C(O)C(O)C2OC2CC(C)(NCc3cccc(Oc4ccccc4)c3)C(O)C(C)O2)Oc2ccc(cc2Cl)C1O (stereo not shown) [Compound 49, 3-phenoxybenzyl] | 64 (≈ 36.1 µM) |  |  | 1 (≈ 0.563 µM) | 0.25 (≈ 0.141 µM) | ≤ 0.06 | 55 (≈ 31 µM) | 64 (≈ 36.1 µM) | 64 (≈ 36.1 µM) | 64 (≈ 36.1 µM) | MIC [5]: > 64 µg/mL; MIC (Escherichia coli EC14): > 64 µg/mL; MIC [6]: 1 µg/mL (≈ 0.563 µM); MIC [7]: ≤ 0.06 µg/mL; MIC [8]: 1 µg/mL (≈ 0.563 µM); MIC [9]: 1 µg/mL (≈ 0.563 µM); MIC [10]: 0.125 µg/mL (≈ 0.0704 µM); MIC [11]: ≤ 0.06 µg/mL; MIC [12]: ≤ 0.06 µg/mL; MIC [13]: ≤ 0.06 µg/mL; MIC [14]: 0.125 µg/mL (≈ 0.0704 µM); MIC [15]: 1 µg/mL (≈ 0.563 µM); MIC [16]: 0.5 µg/mL (≈ 0.282 µM); MIC [17]: 2 µg/mL (≈ 1.13 µM); MIC (Entercoccus faecium 180): 0.25 µg/mL (≈ 0.141 µM); MIC [18]: ≤ 0.06 µg/mL; MIC [19]: 1 µg/mL (≈ 0.563 µM); MIC [20]: ≤ 0.06 µg/mL |
| CNC(CC(C)C)C(=O)NC1C(=O)NC(CC(N)=O)C(=O)NC2C(=O)NC3C(=O)NC(C(=O)NC(C(=O)O)c4cc(O)cc(O)c4-c4cc3ccc4O)C(OC3CC(C)(N)C(O)C(C)O3)c3ccc(c(Cl)c3)Oc3cc2cc(c3OC2OC(CO)C(O)C(O)C2OC2CC(C)(NCc3ccc(Oc4ccccc4)cc3)C(O)C(C)O2)Oc2ccc(cc2Cl)C1O (stereo not shown) [Compound 4, p-phenoxybenzyl.cndot.A82846B] | 32 (≈ 18 µM) |  | 32 (≈ 18 µM) | ≤ 0.06 | ≤ 0.06 | ≤ 0.06 | 7.5 (≈ 4.23 µM) | 16 (≈ 9.02 µM) | 16 (≈ 9.02 µM) | 16 (≈ 9.02 µM) |  |
| CN[C@H](CC(C)C)C(=O)N[C@H]1C(=O)N[C@@H](CC(N)=O)C(=O)N[C@H]2C(=O)N[C@H]3C(=O)N[C@H](C(=O)N[C@H](C(=O)O)c4cc(O)cc(O)c4-c4cc3ccc4O)[C@H](O)c3ccc(c(Cl)c3)Oc3cc2cc(c3O[C@@H]2O[C@H](CO)[C@@H](O)[C@H](O)[C@H]2O[C@H]2C[C@](C)(N)[C@H](O)[C@H](C)O2)Oc2ccc(cc2Cl)[C@H]1O [vancomycin, reference compound] | 1024 (≈ 707 µM) | > 1024 | > 1024 | 4 (≈ 2.76 µM) | 1 (≈ 0.69 µM) | 2 (≈ 1.38 µM) | 891 (≈ 615 µM) | 1024 (≈ 707 µM) | 1024 (≈ 707 µM) | 1024 (≈ 707 µM) |  |
| CNC(CC(C)C)C(=O)NC1C(=O)NC(CC(N)=O)C(=O)NC2C(=O)NC3C(=O)NC(C(=O)NC(C(=O)O)c4cc(O)cc(O)c4-c4cc3ccc4O)C(OC3CC(C)(N)C(O)C(C)O3)c3ccc(c(Cl)c3)Oc3cc2cc(c3OC2OC(CO)C(O)C(O)C2OC2CC(C)(NCc3ccc(Sc4ccccc4)cc3)C(O)C(C)O2)Oc2ccc(cc2Cl)C1O (stereo not shown) [Compound 108, 4-thiophenylbenzyl] | 16 (≈ 8.93 µM) |  | 32 (≈ 17.9 µM) | ≤ 0.06 | 0.5 (≈ 0.279 µM) | ≤ 0.06 | 12 (≈ 6.7 µM) | 8.0 (≈ 4.47 µM) | 10 (≈ 5.58 µM) | 23 (≈ 12.8 µM) |  |
| CNC(CC(C)C)C(=O)NC1C(=O)NC(CC(N)=O)C(=O)NC2C(=O)NC3C(=O)NC(C(=O)NC(C(=O)O)c4cc(O)cc(O)c4-c4cc3ccc4O)C(OC3CC(C)(N)C(O)C(C)O3)c3ccc(c(Cl)c3)Oc3cc2cc(c3OC2OC(CO)C(O)C(O)C2OC2CC(C)(NCc3ccc(-c4ccc(-c5ccccc5)cc4)cc3)C(O)C(C)O2)Oc2ccc(cc2Cl)C1O (stereo not shown) [Compound 36, 4-[4-biphenyl]benzyl] | 32 (≈ 17.4 µM) | 32 (≈ 17.4 µM) | 32 (≈ 17.4 µM) | 0.25 (≈ 0.136 µM) | 2 (≈ 1.09 µM) | 1 (≈ 0.545 µM) | 9.2 (≈ 5.01 µM) | 16 (≈ 8.72 µM) | 16 (≈ 8.72 µM) | 16 (≈ 8.72 µM) |  |
